Data on 18 compounds can be found in PubChem BioAssay AID180 (DTP/NCI, 2004).

Where “and” joins values, the source holds several entries; their conditions need not be identical. Equal values may be shown once.

The assay concerns BDF1 mice, Adenocarcinoma 755 s.c., tumor weight T/C. Nature of the assay: NCI In Vivo Anticancer Drug Screen. Data for tumor model Adenocarcinoma 755 (subcutaneous) in B6D2F1 (BDF1) mice. The settings on record: endpoint: mean tumor weight, higher = larger tumour. The essentials:
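Tumor-bearing mice receive test compound while controls get vehicle alone. Antitumor effect is scored from survival or tumor dimensions as a T/C quotient.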

Where [1] appears, read: dose: 15.0 mg/kg/injection, schedule: Q01DX011 (ip), vehicle: methylcellulose (MC).
The mark [2] stands for this setting: dose: 60.0 mg/kg/injection, schedule: Q01DX011 (ip), vehicle: carboxymethylcellulose (CMC).
[3] abbreviates: dose: 31.0 mg/kg/injection, schedule: Q01DX011 (ip), vehicle: methylcellulose (MC).
[4] abbreviates: dose: 62.0 mg/kg/injection, schedule: Q01DX011 (ip), vehicle: methylcellulose (MC).
Where [5] appears, read: dose: 30.0 mg/kg/injection, schedule: Q01DX011 (ip), vehicle: carboxymethylcellulose (CMC).
Setting [6] is: dose: 25.0 mg/kg/injection, schedule: Q01DX011 (ip), vehicle: methylcellulose (MC).
Where [7] appears, read: dose: 75.0 mg/kg/injection, schedule: Q01DX011 (ip), vehicle: methylcellulose (MC).

Take `CCN(CC)c1ccc2cc3ccc(=[N+](CC)CC)cc-3oc2c1`: the T/C runs as follows: (dose: 0.64 mg/kg/injection, schedule: Q01DX011 (ip), vehicle: carboxymethylcellulose (CMC)) 33 % of control; (dose: 0.66 mg/kg/injection, schedule: Q01DX011 (ip), vehicle: carboxymethylcellulose (CMC)) 47 % of control; (dose: 1.27 mg/kg/injection, schedule: Q01DX011 (ip), vehicle: carboxymethylcellulose (CMC)) 119 % of control; (dose: 1.32 mg/kg/injection, schedule: Q01DX011 (ip), vehicle: carboxymethylcellulose (CMC)) 90 % of control; (dose: 1.7 mg/kg/injection, schedule: Q01DX011 (ip), vehicle: carboxymethylcellulose (CMC)) 91 % of control; (dose: 2.64 mg/kg/injection, schedule: Q01DX011 (ip), vehicle: carboxymethylcellulose (CMC)) 81 % of control. The T/C was 115 % of control (dose: 4.0 mg/kg/injection, schedule: Q01DX011 (ip), vehicle: other); 70 % of control (dose: 5.0 mg/kg/injection, schedule: Q01DX011 (ip), vehicle: methylcellulose (MC)); 53 % of control (dose: 5.1 mg/kg/injection, schedule: Q01DX011 (ip), vehicle: carboxymethylcellulose (CMC)); 100 % of control (dose: 5.28 mg/kg/injection, schedule: Q01DX011 (ip), vehicle: carboxymethylcellulose (CMC)); 114 % of control (dose: 8.0 mg/kg/injection, schedule: Q01DX011 (ip), vehicle: other); 90 % of control (dose: 12.0 mg/kg/injection, schedule: Q01DX011 (ip), vehicle: other). Under setting [1], the T/C was 75 % of control.
As for `O=C1OC(c2cc(I)c(O)c(I)c2)(c2cc(I)c(O)c(I)c2)c2ccccc21`, the T/C is 107 % of control (dose: 0.38 mg/kg/injection, schedule: Q01DX011 (ip), vehicle: carboxymethylcellulose (CMC)); 68 % of control (dose: 0.76 mg/kg/injection, schedule: Q01DX011 (ip), vehicle: carboxymethylcellulose (CMC)); 68 % of control (dose: 1.56 mg/kg/injection, schedule: Q01DX011 (ip), vehicle: carboxymethylcellulose (CMC)).
As for `CCOC(=O)C1=C(C)NC(C)=C(C(=O)OCC)C1C`, the T/C (dose: 31.2 mg/kg/injection, schedule: Q01DX011 (ip), vehicle: other) is 85 % of control; the T/C (dose: 62.5 mg/kg/injection, schedule: Q01DX011 (ip), vehicle: other) is 77 % of control; the T/C (dose: 125.0 mg/kg/injection, schedule: Q01DX011 (ip), vehicle: other) is 79 % of control and 81 % of control.
For the compound `Nc1nc(SCc2ccc([N+](=O)[O-])cc2)c2[nH]cnc2n1`, the T/C was 10 % of control (dose: 600.0 mg/kg/injection, schedule: Q01DX011 (ip), vehicle: carboxymethylcellulose (CMC)); 10 % of control (dose: 750.0 mg/kg/injection, schedule: Q01DX011 (ip), vehicle: carboxymethylcellulose (CMC)); 8 % of control (dose: 800.0 mg/kg/injection, schedule: Q01DX011 (ip), vehicle: carboxymethylcellulose (CMC)); 1 % of control and 5 % of control (dose: 900.0 mg/kg/injection, schedule: Q01DX011 (ip), vehicle: carboxymethylcellulose (CMC)); 6 % of control (dose: 1000.0 mg/kg/injection, schedule: Q01DX011 (ip), vehicle: carboxymethylcellulose (CMC)).
Regarding `NNC(=O)c1nsnc1NC(N)=O`, the T/C is 39 % of control (dose: 43.0 mg/kg/injection, schedule: Q01DX011 (ip), vehicle: carboxymethylcellulose (CMC)) and 18 % of control under setting [2].
For the compound `NC(=S)N/N=C/c1cccnc1`, the T/C reads like this: (dose: 1:1000.0 dilution, schedule: Q01DX006 (ip), vehicle: water) 124 % of control; (dose: 1:2000.0 dilution, schedule: Q01DX006 (ip), vehicle: water) 110 % of control.
As for `Oc1ccc2ccccc2c1N=Nc1ccc(N=Nc2ccccc2)cc1`, the T/C runs as follows: (dose: 25.0 mg/kg/injection, schedule: Q01DX011 (ip), vehicle: carboxymethylcellulose (CMC)) 121 % of control; (dose: 100.0 mg/kg/injection, schedule: Q01DX011 (ip), vehicle: carboxymethylcellulose (CMC)) 116 % of control; (dose: 200.0 mg/kg/injection, schedule: Q01DX011 (ip), vehicle: carboxymethylcellulose (CMC)) 108 % of control.
On to `Brc1ncnc2nc[nH]c12`, for which the T/C runs as follows: (dose: 1.12 mg/kg/injection, schedule: Q01DX011 (ip), vehicle: carboxymethylcellulose (CMC)) 99 % of control; (dose: 2.25 mg/kg/injection, schedule: Q01DX011 (ip), vehicle: carboxymethylcellulose (CMC)) 100 % of control; (dose: 4.5 mg/kg/injection, schedule: Q01DX011 (ip), vehicle: carboxymethylcellulose (CMC)) 43 % of control; (dose: 9.0 mg/kg/injection, schedule: Q01DX011 (ip), vehicle: carboxymethylcellulose (CMC)) 50 % of control; (dose: 9.37 mg/kg/injection, schedule: Q01DX011 (ip), vehicle: carboxymethylcellulose (CMC)) 10 % of control; (dose: 18.75 mg/kg/injection, schedule: Q01DX011 (ip), vehicle: carboxymethylcellulose (CMC)) 10 % of control. The T/C is 2 % of control (dose: 37.5 mg/kg/injection, schedule: Q01DX011 (ip), vehicle: carboxymethylcellulose (CMC)); 1 % of control and 6 % of control (dose: 75.0 mg/kg/injection, schedule: Q01DX011 (ip), vehicle: carboxymethylcellulose (CMC)); 6 % of control (dose: 150.0 mg/kg/injection, schedule: Q01DX011 (ip), vehicle: carboxymethylcellulose (CMC)).
For `CCOP(=O)(OCC)OCC1OC(n2cnc3c(=S)nc[nH]c32)C(O)C1O` (stereo not drawn), the T/C runs as follows: (dose: 4.0 mg/kg/injection, schedule: Q01DX011 (ip), vehicle: methylcellulose (MC)) 50 % of control; (dose: 8.0 mg/kg/injection, schedule: Q01DX011 (ip), vehicle: methylcellulose (MC)) 49 % of control; (dose: 16.0 mg/kg/injection, schedule: Q01DX011 (ip), vehicle: methylcellulose (MC)) 56 % of control; under setting [3], 33 % of control; under setting [4], 46 % of control; (dose: 125.0 mg/kg/injection, schedule: Q01DX011 (ip), vehicle: methylcellulose (MC)) 7 % of control.
With `CN(C)c1nc(Cl)nc2c1nc(Cl)n2C1CCCCO1` (stereo not drawn), the T/C was 102 % of control under setting [5]; 85 % of control under setting [2]; 68 % of control (dose: 120.0 mg/kg/injection, schedule: Q01DX011 (ip), vehicle: carboxymethylcellulose (CMC)).
Consider `Cn1c(=O)c2[nH]c(/N=N/N3CCCCC3)nc2n(C)c1=O`, for which the T/C is 61 % of control under setting [6]; 69 % of control and 70 % of control under setting [7].
In the case of `O=c1[nH]cnc2c1ncn2CCCl`, the T/C is 195 % of control under setting [6]; 150 % of control under setting [7]; 120 % of control (dose: 225.0 mg/kg/injection, schedule: Q01DX011 (ip), vehicle: methylcellulose (MC)).
As for `NC(CCSCc1ccc(N(CCCl)CCCl)cc1)C(=O)O` (stereo not drawn), the T/C (dose: 4.5 mg/kg/injection, schedule: Q01DX011 (ip), vehicle: saline) is 99 % of control and 74 % of control; the T/C (dose: 9.0 mg/kg/injection, schedule: Q01DX011 (ip), vehicle: saline) was 43 % of control and 54 % of control; the T/C (dose: 36.0 mg/kg/injection, schedule: Q01DX011 (ip), vehicle: saline) is 29 % of control; the T/C (dose: 54.0 mg/kg/injection, schedule: Q01DX011 (ip), vehicle: saline) was 21 % of control.
Regarding `CS(=O)(=O)c1nc(N)nc2nc[nH]c12`, the T/C reads like this: (dose: 3.75 mg/kg/injection, schedule: Q01DX011 (ip), vehicle: carboxymethylcellulose (CMC)) 81 % of control; (dose: 7.5 mg/kg/injection, schedule: Q01DX011 (ip), vehicle: carboxymethylcellulose (CMC)) 93 % of control and 81 % of control; under setting [5], 5 % of control and 12 % of control.
For `NC(N)=Nc1nc2ccccc2o1`, the T/C (dose: 55.0 mg/kg/injection, schedule: Q01DX011 (ip), vehicle: methylcellulose (MC)) was 109 % of control; the T/C (dose: 110.0 mg/kg/injection, schedule: Q01DX011 (ip), vehicle: methylcellulose (MC)) is 99 % of control; the T/C (dose: 220.0 mg/kg/injection, schedule: Q01DX011 (ip), vehicle: methylcellulose (MC)) was 94 % of control; the T/C (dose: 330.0 mg/kg/injection, schedule: Q01DX011 (ip), vehicle: methylcellulose (MC)) was 66 % of control; the T/C (dose: 440.0 mg/kg/injection, schedule: Q01DX011 (ip), vehicle: methylcellulose (MC)) is 78 % of control.
As to `Cn1c(=O)c2c(nc(Cl)n2CCl)n(C)c1=O`, under setting [6], the T/C is 60 % of control.
Regarding `N#Cc1cn(Cc2ccco2)c(=O)[nH]c1=O`, the T/C is, setting by setting: under setting [1], 54 % of control; under setting [3], 84 % of control; under setting [4], 80 % of control.
For the compound `Cc1ccc(CSc2nc(N)nc3c2ncn3C2OC(CO)C(O)C2O)cc1` (stereo not drawn), the T/C is, setting by setting: (dose: 12.5 mg/kg/injection, schedule: Q01DX011 (ip), vehicle: methylcellulose (MC)) 57 % of control; under setting [6], 60 % of control; (dose: 50.0 mg/kg/injection, schedule: Q01DX011 (ip), vehicle: methylcellulose (MC)) 25 % of control and 41 % of control.

By T/C is commonly meant the result in the treated group divided by that in the control group, in per cent.
